{"source": "patent US9644034B2", "about": "“Anti-RSPO2 antibodies and uses thereof” (OncoMed Pharmaceuticals, Inc., priority 2011, dated 2017)", "key": {"[1]": {"test_system": "PN7 tumors", "experiment": "Serial transplantation of cells from treated PN7 tumors (tumorigenicity)", "assay_type": "in vivo, NOD-SCID mice", "settings": "90 cells injected, 40 days growth with no treatment; vs control antibody", "method": "The PN7 tumors described above were processed to yield single cell suspensions. Mouse cells were depleted from the cell mixtures using biotinylated anti-H2K^d and anti-CD45 antibodies and streptavidin-conjugated magnetic beads. The remaining human tumor cells were serially transplanted into a new cohort of mice. 90 tumor cells from each treatment group were injected into the flanks of NOD-SCID mice (n=10 mice per group). Tumors were allowed to grow for 40 days with no treatment and tumor volumes were measured with electronic calipers."}, "[2]": {"test_system": "PN31 pancreatic tumor cells", "experiment": "PN31 pancreatic tumor xenograft growth in NOD/SCID mice", "assay_type": "in vivo", "settings": "vs control; antibodies 15 mg/kg once a week, gemcitabine once a week, intraperitoneal", "method": "Dissociated PN31 pancreatic tumor cells (1×10^5cells) were injected subcutaneously into the flanks of 6-8 week old NOD/SCID mice. Tumors were allowed to grow for 61 days until they reached an average volume of 120 mm^3. The mice were randomized (n=10 per group) and treated with anti-RSPO1 antibody 89M5, anti-RSPO2 antibody 130M23, gemcitabine, a combination of 89M5 and gemcitabine, a combination of 130M23 and gemcitabine, or control antibody 1B7.11. Antibodies were dosed at 15 mg/kg once a week, and gemcitabine was dosed at […] once a week. Administration of the antibodies and gemcitabine was performed via injection into the intraperitoneal cavity. Tumor growth was monitored and tumor volumes were measured with electronic calipers at specific time points. Data are expressed as mean±S.E.M."}, "[3]": {"target": "T1, LGR5 (Homo sapiens, UniProt O75473)", "T1 construct": "ligating amino acids 22-564 of human LGR5 to an N-terminal FLAG tag; expressed in transfected cells; host or cells: HEK-293", "T1 sequence (O75473 22-564)": "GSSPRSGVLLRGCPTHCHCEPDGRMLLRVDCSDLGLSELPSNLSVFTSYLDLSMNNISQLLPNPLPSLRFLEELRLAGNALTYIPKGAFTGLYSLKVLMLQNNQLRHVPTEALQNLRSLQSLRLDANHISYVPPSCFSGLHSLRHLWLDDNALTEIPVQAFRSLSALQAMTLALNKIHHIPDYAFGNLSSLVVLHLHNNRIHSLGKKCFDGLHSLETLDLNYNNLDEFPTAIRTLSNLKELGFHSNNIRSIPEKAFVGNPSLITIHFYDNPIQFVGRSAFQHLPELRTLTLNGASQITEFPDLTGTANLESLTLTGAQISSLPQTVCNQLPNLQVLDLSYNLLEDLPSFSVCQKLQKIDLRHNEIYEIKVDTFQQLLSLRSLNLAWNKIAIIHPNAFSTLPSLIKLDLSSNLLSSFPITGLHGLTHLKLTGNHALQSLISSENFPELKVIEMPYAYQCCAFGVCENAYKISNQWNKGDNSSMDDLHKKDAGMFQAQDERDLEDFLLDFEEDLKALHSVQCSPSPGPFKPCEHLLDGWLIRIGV", "experiment": "FACS binding of RSPO-Fc fusion proteins to LGR5 expressed on HEK-293 cells", "settings": "Fc fusion proteins 10 μg/ml", "excerpt": "A cell surface LGR5 protein was generated by ligating amino acids 22-564 of human LGR5 to an N-terminal FLAG tag and to the transmembrane domain of CD4 and a C-terminal GFP protein tag using standard recombinant DNA techniques (FLAG-LGR5-CD4TM-GFP). RSPO-Fc constructs were generated using standard recombinant DNA techniques. Specifically, full-length human RSPO1, RSPO2, RSPO3 and RSPO4 were ligated in-frame to a human Fc region and the recombinant RSPO-Fc proteins were expressed in insect cells using baculovirus. The fusion proteins were purified from the insect medium using protein A chromatography.\nHEK-293 cells were transiently transfected with the FLAG-LGR5-CD4TM-GFP construct. After 48 hours, transfected cells were suspended in ice cold PBS containing 2% FBS and heparin and incubated on ice in the presence of 10 μg/ml RSPO1-Fc, RSPO2-Fc, RSPO3-Fc, RSPO4-Fc, or FZD8-Fc fusion proteins for 15 minutes. A second incubation with 100 μl PE-conjugated anti-human Fc secondary antibody was performed to detect cells bound by the Fc fusion proteins. Cells were incubated with an anti-FLAG antibody (Sigma-Aldrich, St. Louis, Mo.) as a positive control and with an anti-PE antibody as a negative control. The cells were analyzed on a FACSCalibur instrument (BD Biosciences, San Jose, Calif.) and the data was processed using FlowJo software."}}}
{"molecule": "Nc1ccn([C@@H]2O[C@H](CO)[C@@H](O)C2(F)F)c(=O)n1", "note": "[gemcitabine, reference compound]", "values": [{"measurement": "tumorigenicity of cells isolated from treated mice", "setting": "[1]", "result": "decrease in tumorigenicity"}, {"measurement": "reduction in tumor growth", "setting": "[2]", "result": 49, "unit": "%"}]}
{"molecule": "RSPO3: full-length human RSPO3 ligated to a human Fc region (protein) QNASRGRRQRRMHPNVSQGCQGGCATCSDYNGCLSCKPRLFFALERIGMKQIGVCLSSCPSGYYGTRYPDINKCTKCKADCDTCFNKNFCTKCKSGFYLHLGKCLDNCPEGLEANNHTMECVSIVHCEVSEWNPWSPCTKKGKTCGFKRGTETRVREIIQHPSAKGNLCPPTNETRKCTVQRKKCQKGERGKKGRERKRKKPNKGESKEAIPDSKSLESSKEIPEQRENKQQQKKRKVQDKQKSVSVSTVH", "values": [{"measurement": "binding to LGR5 expressed on the surface of HEK-293 cells", "setting": "[3]", "result": "bound"}]}
{"molecule": "RSPO4: full-length human RSPO4 ligated to a human Fc region (protein, left off: a dimerising Fc or GST, full-length human RSPO4 ligated to a human Fc region) LNRRKKQVGTGLGGNCTGCIICSEENGCSTCQQRLFLFIRREGIRQYGKCLHDCPPGYFGIRGQEVNRCKKCGATCESCFSQDFCIRCKRQFYLYKGKCLPTCPPGTLAHQNTRECQGECELGPWGGWSPCTHNGKTCGSAWGLESRVREAGRAGHEEAATCQVLSESRKCPIQRPCPGERSPGQKKGRKDRRPRKDRKLDRRLDVRPRQPGLQP", "values": [{"measurement": "binding to LGR5 expressed on the surface of HEK-293 cells", "setting": "[3]", "result": "bound"}]}
